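Following 48 hours of exposure in 96-well plates, responses at five concentrations were used to interpolate endpoints linearly. GI50 marks 50% less growth.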 Calls of active or inactive are those of the source. Cut-off read from the data, not from the text of the source: active = GI50 up to about 1.1 µM and inactive = higher.
Tests used:
Experiment in all cases: DTP human tumour cell line panel, 48 h
U-251 = test system: U-251
OVCAR-8 = test system: OVCAR-8
SF-295 = test system: SF-295
CCRF-CEM = test system: CCRF-CEM
SK-MEL-28 = test system: SK-MEL-28
TK-10 = test system: TK-10
UACC-257 = test system: UACC-257
RPMI-8226 = test system: RPMI-8226
HCC 2998 = test system: HCC 2998
K562 = test system: K562
IGROV-1 = test system: IGROV-1
SR = test system: SR
OVCAR-4 = test system: OVCAR-4
RXF 393 = test system: RXF 393
HCT-116 = test system: HCT-116
EKVX = test system: EKVX
HCT-15 = test system: HCT-15
M14 = test system: M14
SK-OV-3 = test system: SK-OV-3
HOP-62 = test system: HOP-62

SMILES	GI50 (U-251)	GI50 (OVCAR-8)	GI50 (SF-295)	GI50 (CCRF-CEM)	GI50 (SK-MEL-28)	GI50 (TK-10)	GI50 (UACC-257)	GI50 (RPMI-8226)	GI50 (HCC 2998)	GI50 (K562)	GI50 (IGROV-1)	GI50 (SR)	GI50 (OVCAR-4)	GI50 (RXF 393)	GI50 (HCT-116)	GI50 (EKVX)	GI50 (HCT-15)	GI50 (M14)	GI50 (SK-OV-3)	GI50 (HOP-62)
CCOC(=O)c1nc2cc(C(F)(F)F)ccc2nc1Oc1ccc(C(=O)OC)cc1	> 100 µM (inactive)	> 100 µM (inactive)	> 100 µM (inactive)	97.1 µM (inactive)	> 100 µM (inactive)	> 100 µM (inactive)	> 100 µM (inactive)	> 100 µM (inactive)	> 100 µM (inactive)	> 100 µM (inactive)	> 100 µM (inactive)	> 100 µM (inactive)	78.7 µM (inactive)	85.5 µM (inactive)	> 100 µM (inactive)	> 100 µM (inactive)	51.5 µM	64.3 µM (inactive)		
O=C(c1cccs1)N(C(=S)N1CCN(c2ccccn2)CC1)C1CCCCC1	79.1 µM (inactive)	> 100 µM (inactive)	> 100 µM (inactive)	81.1 µM (inactive)	> 100 µM (inactive)	> 100 µM (inactive)	50.9 µM (inactive)	43.1 µM (inactive)		47 µM (inactive)	> 100 µM (inactive)	36.6 µM (inactive)	> 100 µM (inactive)	22.5 µM (inactive)	49.3 µM (inactive)		78 µM	76.4 µM (inactive)	> 100 µM (inactive)	> 100 µM (inactive)
Cc1c2ccccc2c(C2C3C(=O)N(c4cccc5ccccc45)C(=O)C3ON2Cc2ccc(CC(N)=O)cc2)c2ccccc12 (centres undefined)	19.8 µM (inactive)	22.4 µM (inactive)	16.3 µM (inactive)	14.7 µM (inactive)	> 50 µM (inactive)	16.7 µM (inactive)	12.2 µM (inactive)			15.7 µM (inactive)	17.7 µM (inactive)	14 µM (inactive)	19 µM (inactive)	8.59 µM (inactive)	18.2 µM (inactive)	14.2 µM (inactive)	18.4 µM	15 µM (inactive)	30.8 µM (inactive)	23 µM (inactive)
Cc1ccccc1S(=O)(=O)Nn1cnc2ccc(S(=O)(=O)Nc3ccc(Cl)cc3)cc2c1=O	> 100 µM (inactive)	> 100 µM (inactive)	48.4 µM (inactive)	> 100 µM (inactive)	> 100 µM (inactive)	> 100 µM (inactive)	> 100 µM (inactive)	51.8 µM (inactive)	> 100 µM (inactive)	10 µM (inactive)	7.59 µM (inactive)	> 100 µM (inactive)	> 100 µM (inactive)		> 100 µM (inactive)	35.2 µM (inactive)	> 100 µM	65.9 µM (inactive)	> 100 µM (inactive)	> 100 µM (inactive)
CO[C@@H]1C[C@H]2[C@@H]3CC[C@H]([C@@H](C)CO)[C@@]3(C)CC[C@@H]2[C@@]2(C)CC[C@H]3C[C@]312	14.6 µM (inactive)	31 µM (inactive)	30.5 µM (inactive)	40.2 µM (inactive)	27.6 µM (inactive)	> 100 µM (inactive)	34 µM (inactive)	25 µM (inactive)	33.1 µM (inactive)	22.8 µM (inactive)	50.9 µM (inactive)	31.6 µM (inactive)	33.2 µM (inactive)	19.2 µM (inactive)	34.4 µM (inactive)	27.2 µM (inactive)	33.3 µM	23.3 µM (inactive)		46.8 µM (inactive)
Cc1cc(=O)oc2c(CN3CCCCC3)c(O)ccc12	> 100 µM (inactive)	> 100 µM (inactive)	> 100 µM (inactive)	> 100 µM (inactive)	> 100 µM (inactive)	> 100 µM (inactive)	> 100 µM (inactive)	> 100 µM (inactive)	> 100 µM (inactive)	> 100 µM (inactive)	> 100 µM (inactive)	> 100 µM (inactive)	> 100 µM (inactive)	> 100 µM (inactive)	> 100 µM (inactive)	> 100 µM (inactive)	> 100 µM	> 100 µM (inactive)		> 100 µM (inactive)
Cc1cc(=O)oc2c(C)c(O)ccc12	> 100 µM (inactive)	> 100 µM (inactive)	> 100 µM (inactive)	> 100 µM (inactive)	> 100 µM (inactive)		> 100 µM (inactive)	62.1 µM (inactive)	> 100 µM (inactive)	> 100 µM (inactive)	> 100 µM (inactive)	> 100 µM (inactive)	> 100 µM (inactive)	> 100 µM (inactive)	> 100 µM (inactive)	> 100 µM (inactive)	> 100 µM	> 100 µM (inactive)		> 100 µM (inactive)
